The values below come from patent publication US20240132445A1, “PHENOL DERIVATIVE AND APPLICATION THEREOF IN MEDICAMENTS” (priority 2021, published 2024).

Data set [1] is described as follows: in vivo. The settings on record: both, ICR, mouse, in vivo, iv. The protocol: (§1) SPF-grade ICR mice, each weighing 18-22 g, half male and half female, were used. A well-established mouse anesthesia model was used to study the general anesthesia effect of the compound of the present invention. The compounds were formulated with solvents of 10% DMSO, 15% solutol (HS15) and 75% saline to the desired concentration, for further use. After adapting to the experimental environment, the experimental animals were fasted with water available for 12 h, and were administered via intravenous injection at an administration volume of 10 mL/kg. Then the anesthesia induction time (the time period from drug administration to disappearance of the righting reflex) and the anesthesia maintenance time (the time period from disappearance of the righting reflex to recovery of the righting reflex) were recorded. Indicators including the median effective dose (ED50), median lethal dose (LD50), therapeutic index (TI, i.e. LD50/ED50), anesthesia induction time, anesthesia maintenance time and maximum tolerated dose were used to evaluate the effect and safety of anesthesia.

Data set [2] relates to ICR mice. The data set can be described thus: animal or person. The note with it: for ED50: Mus musculus. The protocol: as §1
Data set [3] can be described thus: in vivo. Type of data set: in vivo, rats. The note with it: both sexes, Sprague-Dawley, rat, in vivo, iv.
Protocol: (§2) SD rats, half male and half female, were fasted with water available for 12 h, and were administered via intravenous injection at an administration volume of 10 mL/kg. Then the anesthesia induction time (the time period from drug administration to disappearance of the righting reflex), the anesthesia maintenance time (the time period from disappearance of the righting reflex to recovery of the righting reflex and revival) and the anesthesia recovery time (the time period from revival to complete recovery) were recorded. Indicators including the median effective dose (ED50), median lethal dose (LD50), therapeutic index (TI, i.e. LD50/ED50), anesthesia induction time, anesthesia maintenance time and maximum tolerated dose were used to evaluate the effect and safety of anesthesia.
Data set [4] deals with SD rats. Nature of the data set: animal or person. Type of data set: in vivo.
Protocol: as §2
Data set [5] can be described thus: Pharmacokinetic study in rats. Type of data set: in vivo, SD rats. The settings on record: male, Sprague-Dawley, rat, plasma, iv, 1 mg/kg. Here is the method: Twelve male SD rats (200-300 g) were randomized into 2 groups (n=6): control group 3 and compound 20. The rats were administered via intravenous injection at 1 mg/kg (control group 3) and 1 mg/kg (compound 20), respectively, with an administration volume of 5 mL/kg and a vehicle of 5% DMSO+10% solutol (HS15)+85% Saline. Blood samples were taken before administration and at 2 min, 4 min, 8 min, 12 min, 15 min, 30 min, 1 h, 1.5 h and 2 h after administration. Plasma samples were taken by centrifugation, and stored in a −80° C. refrigerator until LC-MS analysis to be tested. After sample processing, quantitative analysis of substances in plasma was conducted using LCMS/MS to detect the concentration of prototype compounds in the plasma. The plasma concentration/time curve obtained in this way was used to calculate pharmacokinetic parameters by a validated pharmacokinetic computer program.

Data set [6] is described as follows: Pharmacokinetic study in Beagle dogs. The note with it: male, dog, plasma, iv, 0.5 mg/kg. Type of data set: in vivo. The protocol:
Six male Beagle dogs (6-10 kg) were randomized into 2 groups (n=3): control group 3 and compound 20. The […] were administered via intravenous injection at 0.5 mg/kg (control group 3) and 0.5 mg/kg (compound 20), respectively, with an administration volume of 1 mL/kg and a vehicle of 5% DMSO+10% solutol (HS15)+85% Saline. Blood samples were taken before administration and at 2 min, 5 min, 10 min, 20 min, 30 min, 1 h, 1.5 h, 2 h and 3 h after administration. Plasma samples were taken by centrifugation, and stored in a −80° C. refrigerator until LC-MS analysis to be tested. After sample processing, quantitative analysis of substances in plasma was conducted using LCMS/MS to detect the concentration of prototype compounds in the plasma. The plasma concentration/time curve obtained in this way was used to calculate pharmacokinetic parameters by a validated pharmacokinetic computer program.

Data set [7] relates to Beagle dogs. The data set can be described thus: Hemodynamic effect study in conscious Beagle dogs (telemetry). Type of data set: in vivo. The settings on record: iv, control group 3 2 mg/kg, compound 20 0.5 and 1 mg/kg, within 1 h, recovery after 1 h. Here is the method:
The experiment used an emka PACK 4G telemetry system to detect the effects of intravenous injection of control group 3 and compound 20 on electrocardiogram, blood pressure and body temperature in conscious Beagle dogs, providing reference information for evaluating the safety of clinical use.
Four Beagle dogs were subjected to crossover administration, with a vehicle control (5% DMSO+10% solutol+85% Saline), control group 3 (2 mg/kg), compound 20 (0.5 mg/kg) and compound 20 (1 mg/kg) for each intravenous injection, with an administration volume of 2 mL/kg. Observations were respectively conducted before administration and within 1 h after administration on the day of administration. Anal temperature was measured before administration and at 30 min, 1 h, 2 h and 3 h after administration during each administration period; and electrocardiogram parameters were continuously collected from 0.5 h before administration to 3 h after administration during each administration period. Blood pressure was collected at 15 min after collection was started, and was collected at 2 min, 5 min, 10 min, 20 min, 30 min, 1 h, 2 h and 3 h after administration. The electrocardiogram, blood pressure data, body temperature, and clinical observation results on the day of administration at various time points including before administration (at 30 min after collection was started) and at 2 min, 5 min, 10 min, 20 min, 30 min, 1 h, 2 h and 3 h after administration were analysed and evaluated.

Where [8] appears, read: mice, iv, administration to disappearance of righting reflex.
[9] abbreviates: mice, iv, disappearance to recovery of righting reflex.

Each structure is given as a SMILES string.

In the case of `CC(C)c1cccc(C(C)S(C)(=O)=O)c1O` (stereo not shown) [Compound 1, 2-isopropyl-6-(1-(methylsulfonyl)ethyl)phenol], in data set [1], the LD50 (usually the dose expected to kill half of the subjects tested) amounted to 35 mg/kg and the MTD was 24 mg/kg. The 50% effect level in data set [2] (iv) (ED50) was put at a dose of 8 mg/kg. Further, the TI in data set [2] (mice, LD50/ED50) is recorded as 4.4. For the same molecule, the Anesthesia induction time in data set [2] (setting [8]) amounted to 60 s. The molecule further showed an Anesthesia maintenance time in data set [2] (setting [9]) of 255 s.

Consider `CC(C)c1cccc(C(C)[S+](C)[O-])c1O` (stereo not shown) [Compound 2, 2-isopropyl-6-(1-(methylsulfinyl)ethyl)phenol], for which, in data set [1], the LD50 amounted to 17 mg/kg and the MTD was 10 mg/kg. Further, the ED50 (commonly the dose that gives a 50% effect, or the effect in half of the subjects) in data set [2] (iv) was 6 mg/kg. The TI in data set [2] (mice, LD50/ED50) worked out at 3.8. Also, in data set [2] (setting [8]), the Anesthesia induction time amounted to 2 s. For the same molecule, the Anesthesia maintenance time in data set [2] (setting [9]) is 690 s.

In data set [1], `CC(c1cccc(C(C)S(C)(=O)=O)c1O)C1CC1` (stereo not shown) [Compound 4, 2-(1-cyclopropylethyl)-6-(1-(methylsulfonyl)ethyl)phenol] came in with an LD50 of 10 mg/kg and an MTD of 4 mg/kg. Besides, in data set [2] (iv), the ED50 is 2 mg/kg. The same molecule returned a TI in data set [2] (mice, LD50/ED50) of 5.0. In data set [2] (setting [8]), the Anesthesia induction time worked out at 2 s. In addition, the Anesthesia maintenance time in data set [2] (setting [9]) stood at 356 s.

In data set [1], `CC(c1cccc(C(C)[S+](C)[O-])c1O)C1CC1` (stereo not shown) [Compound 5, 2-(1-cyclopropylethyl)-6-(1-(methylsulfinyl)ethyl)phenol] gave an LD50 of 10 mg/kg and an MTD of 8 mg/kg. The molecule further had an ED50 in data set [2] (iv) of 6 mg/kg. Further, the TI in data set [2] (mice, LD50/ED50) was 1.7. This molecule also showed an Anesthesia induction time in data set [2] (setting [8]) of 2 s. The same molecule gave an Anesthesia maintenance time in data set [2] (setting [9]) of 1638 s.

For `CC(c1cccc(C(C)S(=O)(=O)C(C)C)c1O)C1CC1` (stereo not shown) [Compound 6, 2-(1-cyclopropylethyl)-6-(1-(isopropylsulfonyl)ethyl)phenol], in data set [1], the LD50 is 34 mg/kg and the MTD was 22 mg/kg. In addition, the ED50 in data set [2] (iv) came to 11 mg/kg. The TI in data set [2] (mice, LD50/ED50) turned out to be 3.1. For the same molecule, the Anesthesia induction time in data set [2] (setting [8]) was 5 s. This molecule gave an Anesthesia maintenance time in data set [2] (setting [9]) of 579 s.

In data set [1], `CCS(=O)(=O)C(C)c1cccc(C(C)C2CC2)c1O` (stereo not shown) [Compound 11, 2-(1-cyclopropylethyl)-6-(1-(ethylsulfonyl)ethyl)phenol] yielded an LD50 of 11 mg/kg and an MTD of 6 mg/kg. In data set [2] (iv), this molecule had an ED50 of 2 mg/kg. The TI in data set [2] (mice, LD50/ED50) turned out to be 5.5. In data set [2] (setting [8]), this molecule yielded an Anesthesia induction time of 22 s. Also, the Anesthesia maintenance time in data set [2] (setting [9]) worked out at 560 s.

In data set [1], `CCC(c1cccc(C(C)C2CC2)c1O)S(C)(=O)=O` (stereo not shown) [Compound 14, 2-(1-cyclopropylethyl)-6-(1-(methylsulfonyl)propyl)phenol] gave an LD50 of 12 mg/kg and an MTD of 9 mg/kg. Further, it took a dose of 4 mg/kg to reach the 50% effect level in data set [2] (iv) (ED50). The molecule further displayed a TI in data set [2] (mice, LD50/ED50) of 3.0. This molecule displayed an Anesthesia induction time in data set [2] (setting [8]) of 2 s. Besides, the Anesthesia maintenance time in data set [2] (setting [9]) was determined as 499 s.

In data set [1], `CCS(=O)(=O)[C@H](C)c1cccc([C@@H](C)C2CC2)c1O` [Compound 21, 2-((S)-1-cyclopropylethyl)-6-((R)-1-(ethylsulfonyl)ethyl)phenol] yielded an LD50 of 6 mg/kg and an MTD of 3.5 mg/kg. Also, the ED50 in data set [2] (iv) was found to be 2.5 mg/kg. Also, the TI in data set [2] (mice, LD50/ED50) stood at 2.4. Also, the Anesthesia induction time in data set [2] (setting [8]) worked out at 2 s. Further, in data set [2] (setting [9]), the Anesthesia maintenance time is listed as 354 s.

As to `CCS(=O)(=O)[C@@H](C)c1cccc([C@@H](C)C2CC2)c1O` [Compound 22, 2-((S)-1-cyclopropylethyl)-6-((S)-1-(ethylsulfonyl)ethyl)phenol], in data set [1], the LD50 was found to be 18 mg/kg and the MTD turned out to be 9 mg/kg. The molecule further showed an ED50 in data set [2] (iv) of 5 mg/kg. In data set [2] (mice, LD50/ED50), this molecule showed a TI of 3.6. Further, the Anesthesia induction time in data set [2] (setting [8]) came out at 2 s. For the same molecule, the Anesthesia maintenance time in data set [2] (setting [9]) is 384 s.

For `CCS(=O)(=O)[C@H](C)c1cccc([C@H](C)C2CC2)c1O` [Compound 23, 2-((R)-1-cyclopropylethyl)-6-((R)-1-(ethylsulfonyl)ethyl)phenol], in data set [1], the LD50 was 14 mg/kg and the MTD worked out at 10 mg/kg. In data set [2] (iv), this molecule gave an ED50 of 7 mg/kg. This molecule yielded a TI in data set [2] (mice, LD50/ED50) of 2. Further, the Anesthesia induction time in data set [2] (setting [8]) is listed as 2 s. This molecule showed an Anesthesia maintenance time in data set [2] (setting [9]) of 294 s.

In the case of `CC(C)c1cccc(C(C)C)c1O` [Control group 1, propofol, reference compound], the LD50 in data set [1] turned out to be 31 mg/kg. The molecule also registered an ED50 in data set [2] (iv) of 12 mg/kg. In data set [2] (mouse, in vivo), this molecule registered an Anesthesia induction time of 19 s and an Anesthesia maintenance time of 586 s. In addition, the MTD in data set [2] (mouse, in vivo, iv) was 20 mg/kg.

In the case of `CC(C)c1cccc(C(C)C2CC2)c1O` (stereo not shown) [Control group 2, ciprofol, reference compound], in data set [1], the LD50 turned out to be 17 mg/kg and the MTD turned out to be 9 mg/kg. This molecule also had an ED50 in data set [2] (iv) of 3.5 mg/kg. In addition, in data set [2] (mouse, in vivo), the Anesthesia induction time was 2 s, the Anesthesia maintenance time was 534 s and the TI was determined as 4.9.

With `CC(C)c1cccc([C@H](C)C2CC2)c1O` [Control group 3, ciprofol, reference compound], in data set [1], the LD50 came out at 6 mg/kg and the MTD was determined as 3.1 mg/kg. In data set [2] (iv), this molecule showed an ED50 of 1.2 mg/kg. Also, in data set [2] (mouse, in vivo), the Anesthesia induction time was 2 s, the Anesthesia maintenance time was determined as 521 s and the TI was determined as 5. In data set [3], this molecule came in with an LD50 of 5.6 mg/kg and an MTD of 4 mg/kg. In data set [4] (Rattus norvegicus, iv), the ED50 came out at 1.1 mg/kg. In data set [4] (rat, in vivo), this molecule gave an Anesthesia induction time of 34 s, an Anesthesia maintenance time of 409 s and a TI of 5.1. For the same molecule, in data set [5], the AUC(0-t) – broadly, exposure summed from dosing to a finite time, without extrapolation to infinity – was 0.142 µg·h/mL and the half-life – broadly, how long it takes for the measured level to halve – is 50.6 min. Besides, in data set [6], the AUC(0-t) stood at 0.145 µg·h/mL and the half-life is 37.8 min. For the same molecule, the “change in heart rate after administration” value in data set [7] was “slow down in heart rate”.
